What all share (assay type): cell-based
The target of experiment [1] is T1, hNav1.6 (Homo sapiens, UniProt Q9UQD0).
T1 construct: host or cells: HEK293
Nature of the experiment: FLIPR membrane potential assay, hNav1.6. Particulars: for Selectivity for Nav1.7, Nav subtype 1.6: membrane potential assay. Here is the method:
(§1) HEK293 cells stably expressing hNav1.1, hNav1.2, hNav1.3, hNav1.4, hNav1.5, hNav1.6, hNav1.7 and […] (SB Drug Discovery, Glasgow, UK) were cultured in minimum essential media (MEM) containing 10% v/v FBS supplemented with L-glutamine (2 mM) and selection antibiotics G-418 (0.5 mg/mL), blasticidin (2-4 μg/mL) and zeocin (0.5 mg/mL) as recommended by the manufacturer. CHO cells stably expressing hNav1.8 in a tetracycline-inducible system (Chantest, OH, USA) were cultured in Ham's F-12 containing 10% v/v FBS and selection antibiotics as recommended by the manufacturer. To induce hNav1.8 expression, cells were cultured in the presence of tetracycline (1 μg/mL) for 24 h at 27° C. Cells were grown in a humidified 5% CO2 incubator at 37° C., grown to 70-80% confluence, and passaged every 3-4 days using TrypLE Express (Invitrogen).
(§2) Cells were plated 48 h before the assay on 384-well black walled imaging plates at a density of 10,000 to 15,000 cells per well and were loaded with red membrane potential dye for 30 min at 37° C. (Molecular Devices, CA, USA). One vial of bulk red membrane potential dye was reconstituted to a 10× stock solution with PSS and stored at −20° C. and diluted to 1× solution with PSS on the day of the assay. […] Changes in membrane potential were assessed using the FLIPR^TETRA (excitation 515 to 545 nm, emission 565 to 625 nm) every second for 300 s after adding agonists.

The target in experiment [2] is T2, hNav1.8 (Homo sapiens, UniProt Q9Y5Y9).
T2 construct: host or cells: HEK293
Nature of the experiment: FLIPR membrane potential assay, hNav1.8. Particulars: for Selectivity for Nav1.7, Nav subtype 1.8: membrane potential assay. Here is the method:
as §1, §2

The target of experiment [3] is T3, hNav1.3 (Homo sapiens, UniProt Q9NY46).
T3 construct: host or cells: HEK293
Nature of the experiment: FLIPR membrane potential assay, hNav1.3. The settings on record: for Selectivity for Nav1.7, Nav subtype 1.3: membrane potential assay. As for the experimental part: as §1, §2

Experiment [4] concerns the target T4, hNav1.2 (Homo sapiens, UniProt Q99250).
T4 construct: host or cells: HEK293
Nature of the experiment: FLIPR membrane potential assay, hNav1.2. The settings on record: for Selectivity for Nav1.7, Nav subtype 1.2: membrane potential assay. As for the experimental part: as §1, §2

In experiment [5] the target is T5, hNav1.4 (Homo sapiens, UniProt P35499).
T5 construct: host or cells: HEK293
Nature of the experiment: FLIPR membrane potential assay, hNav1.4. The settings on record: for Selectivity for Nav1.7, Nav subtype 1.4: membrane potential assay. Here is the method: as §1, §2

In experiment [6] the target is T6, hNav1.5 (Homo sapiens, UniProt Q14524).
T6 construct: host or cells: HEK293
Nature of the experiment: FLIPR membrane potential assay, hNav1.5. The settings on record: for Selectivity for Nav1.7, Nav subtype 1.5: membrane potential assay. As for the experimental part: as §1, §2

Experiment [7] addresses T7, hNav1.7 (Homo sapiens, UniProt Q15858).
T7 construct: host or cells: HEK293
Nature of the experiment: FLIPR membrane potential assay, hNav1.7. The settings on record: for Selectivity for Nav1.7, Nav subtype 1.7: membrane potential assay, reference subtype. As for the experimental part: as §1, §2

Experiment [8] has as its target T8, hNav1.1 (Homo sapiens, UniProt P35498).
T8 construct: host or cells: HEK293
Nature of the experiment: FLIPR membrane potential assay, hNav1.1. Particulars: for Selectivity for Nav1.7, Nav subtype 1.1: membrane potential assay. Here is the method: as §1, §2

Where a SMILES comes first, the peptide text is derived from it. Bridges are numbered along the chain shown (N, C = ends).

T2 sequence (Q9Y5Y9 whole entry): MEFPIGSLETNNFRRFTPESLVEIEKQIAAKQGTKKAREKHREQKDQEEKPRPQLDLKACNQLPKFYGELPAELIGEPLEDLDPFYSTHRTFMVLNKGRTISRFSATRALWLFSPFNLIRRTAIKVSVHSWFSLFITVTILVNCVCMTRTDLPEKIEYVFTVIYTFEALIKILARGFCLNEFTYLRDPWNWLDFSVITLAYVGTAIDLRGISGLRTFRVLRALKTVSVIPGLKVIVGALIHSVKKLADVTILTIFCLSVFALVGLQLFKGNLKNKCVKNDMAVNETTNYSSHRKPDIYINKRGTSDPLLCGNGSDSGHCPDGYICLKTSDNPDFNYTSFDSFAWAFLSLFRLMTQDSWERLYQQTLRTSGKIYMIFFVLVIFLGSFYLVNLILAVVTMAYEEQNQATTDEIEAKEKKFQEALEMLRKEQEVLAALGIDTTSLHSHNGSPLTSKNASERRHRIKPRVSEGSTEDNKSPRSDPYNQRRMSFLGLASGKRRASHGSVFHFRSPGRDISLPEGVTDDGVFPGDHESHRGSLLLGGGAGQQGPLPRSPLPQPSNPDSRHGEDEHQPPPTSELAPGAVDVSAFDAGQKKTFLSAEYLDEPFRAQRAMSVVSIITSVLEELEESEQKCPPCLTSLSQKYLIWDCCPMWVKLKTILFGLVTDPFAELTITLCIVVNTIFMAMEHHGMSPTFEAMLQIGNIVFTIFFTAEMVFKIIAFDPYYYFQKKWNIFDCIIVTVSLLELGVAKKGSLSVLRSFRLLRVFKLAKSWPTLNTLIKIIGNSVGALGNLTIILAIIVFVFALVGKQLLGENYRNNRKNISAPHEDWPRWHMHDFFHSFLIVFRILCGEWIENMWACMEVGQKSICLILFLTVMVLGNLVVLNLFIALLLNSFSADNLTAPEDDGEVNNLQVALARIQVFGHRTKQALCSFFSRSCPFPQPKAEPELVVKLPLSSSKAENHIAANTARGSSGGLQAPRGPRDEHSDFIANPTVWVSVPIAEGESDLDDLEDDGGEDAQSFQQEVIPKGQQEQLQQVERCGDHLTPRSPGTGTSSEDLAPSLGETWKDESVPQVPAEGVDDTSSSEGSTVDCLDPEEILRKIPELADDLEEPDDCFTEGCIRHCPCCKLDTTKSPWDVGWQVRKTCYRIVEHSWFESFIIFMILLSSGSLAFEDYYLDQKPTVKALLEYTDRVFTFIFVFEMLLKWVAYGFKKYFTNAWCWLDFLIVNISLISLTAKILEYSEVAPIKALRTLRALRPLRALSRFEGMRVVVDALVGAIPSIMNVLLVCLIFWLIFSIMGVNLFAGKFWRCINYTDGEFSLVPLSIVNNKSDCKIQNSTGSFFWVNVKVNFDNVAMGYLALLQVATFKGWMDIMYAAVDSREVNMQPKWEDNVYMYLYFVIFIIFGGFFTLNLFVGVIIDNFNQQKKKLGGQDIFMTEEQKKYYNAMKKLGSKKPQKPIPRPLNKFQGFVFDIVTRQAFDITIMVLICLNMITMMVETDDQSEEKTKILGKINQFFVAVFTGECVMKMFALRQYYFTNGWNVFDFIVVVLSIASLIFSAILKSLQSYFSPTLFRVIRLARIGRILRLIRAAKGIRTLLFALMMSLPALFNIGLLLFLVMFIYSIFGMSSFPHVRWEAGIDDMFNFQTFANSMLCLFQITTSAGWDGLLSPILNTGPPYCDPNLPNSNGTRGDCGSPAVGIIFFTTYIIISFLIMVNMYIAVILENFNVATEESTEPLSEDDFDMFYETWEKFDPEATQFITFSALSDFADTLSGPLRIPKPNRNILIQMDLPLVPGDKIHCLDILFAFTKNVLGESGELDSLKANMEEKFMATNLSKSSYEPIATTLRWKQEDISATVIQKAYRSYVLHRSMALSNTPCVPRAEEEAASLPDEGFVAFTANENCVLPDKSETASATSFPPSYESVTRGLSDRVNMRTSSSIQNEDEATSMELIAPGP
T5 sequence (P35499 whole entry): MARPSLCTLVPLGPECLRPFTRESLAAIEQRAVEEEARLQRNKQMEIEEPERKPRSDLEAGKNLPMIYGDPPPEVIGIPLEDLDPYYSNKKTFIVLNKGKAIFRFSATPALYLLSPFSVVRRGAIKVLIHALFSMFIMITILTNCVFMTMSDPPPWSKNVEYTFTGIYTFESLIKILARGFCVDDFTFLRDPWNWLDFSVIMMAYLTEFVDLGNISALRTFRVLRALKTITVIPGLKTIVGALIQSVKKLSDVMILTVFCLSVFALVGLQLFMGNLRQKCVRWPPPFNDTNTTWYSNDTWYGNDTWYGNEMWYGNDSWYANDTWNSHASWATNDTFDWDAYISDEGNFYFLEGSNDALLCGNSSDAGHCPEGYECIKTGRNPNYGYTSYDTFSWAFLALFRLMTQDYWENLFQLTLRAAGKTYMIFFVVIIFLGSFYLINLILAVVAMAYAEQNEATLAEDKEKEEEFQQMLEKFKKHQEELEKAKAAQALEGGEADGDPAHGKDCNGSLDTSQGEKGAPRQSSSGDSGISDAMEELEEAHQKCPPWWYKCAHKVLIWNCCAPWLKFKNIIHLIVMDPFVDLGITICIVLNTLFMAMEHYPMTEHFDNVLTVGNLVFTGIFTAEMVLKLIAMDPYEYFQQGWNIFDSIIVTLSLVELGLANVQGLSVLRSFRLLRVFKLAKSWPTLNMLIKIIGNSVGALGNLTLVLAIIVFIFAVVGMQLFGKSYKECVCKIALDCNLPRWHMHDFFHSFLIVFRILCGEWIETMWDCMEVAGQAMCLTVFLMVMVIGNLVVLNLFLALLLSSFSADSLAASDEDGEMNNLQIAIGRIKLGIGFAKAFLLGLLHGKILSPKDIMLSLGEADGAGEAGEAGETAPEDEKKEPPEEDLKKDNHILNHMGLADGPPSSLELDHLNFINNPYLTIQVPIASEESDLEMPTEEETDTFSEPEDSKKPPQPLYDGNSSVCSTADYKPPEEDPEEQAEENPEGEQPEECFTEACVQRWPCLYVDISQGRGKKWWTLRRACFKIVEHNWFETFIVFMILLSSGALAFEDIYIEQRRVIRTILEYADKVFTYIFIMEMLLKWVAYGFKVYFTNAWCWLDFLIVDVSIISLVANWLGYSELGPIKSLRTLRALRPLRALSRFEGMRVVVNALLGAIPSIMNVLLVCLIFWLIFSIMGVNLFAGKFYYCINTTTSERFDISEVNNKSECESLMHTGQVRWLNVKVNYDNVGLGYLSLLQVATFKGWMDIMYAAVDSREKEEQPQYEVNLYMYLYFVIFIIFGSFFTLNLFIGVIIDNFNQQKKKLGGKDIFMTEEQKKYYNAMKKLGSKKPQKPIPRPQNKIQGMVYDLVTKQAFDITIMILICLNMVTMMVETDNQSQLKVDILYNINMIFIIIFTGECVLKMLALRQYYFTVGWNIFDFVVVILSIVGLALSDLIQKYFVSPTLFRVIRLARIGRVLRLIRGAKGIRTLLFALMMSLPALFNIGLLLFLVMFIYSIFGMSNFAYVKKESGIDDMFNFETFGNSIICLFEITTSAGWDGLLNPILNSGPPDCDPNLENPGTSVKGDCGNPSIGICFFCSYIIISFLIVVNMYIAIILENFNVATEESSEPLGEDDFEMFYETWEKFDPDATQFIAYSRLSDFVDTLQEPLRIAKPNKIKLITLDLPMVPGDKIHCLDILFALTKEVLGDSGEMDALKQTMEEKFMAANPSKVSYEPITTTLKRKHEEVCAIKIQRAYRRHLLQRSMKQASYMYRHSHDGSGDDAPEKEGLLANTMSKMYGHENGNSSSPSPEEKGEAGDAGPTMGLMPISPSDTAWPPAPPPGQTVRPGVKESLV

As usually defined, the IC50 is the midpoint of a concentration-inhibition curve. As to `CSCC[C@@H]1NC(=O)[C@H](Cc2ccc(O)cc2)NC(=O)[C@H](CCCNC(=N)N)NC(=O)[C@@H](NC(=O)[C@@H](N)CCCCN)CSSC[C@@H]2NC(=O)[C@@H]3CSSC[C@@H](C(=O)N[C@@H](C)C(=O)N[C@@H](Cc4c[nH]c5ccccc45)C(=O)N[C@@H](CC(=O)O)C(=O)N[C@@H](Cc4ccccc4)C(=O)N[C@H](C(=O)N[C@@H](Cc4ccccc4)C(=O)N[C@H](C(=O)O)[C@@H](C)O)[C@@H](C)O)NC(=O)[C@H](Cc4ccc(O)cc4)NC(=O)[C@H](CCCCN)NC(=O)[C@H](CCSC)NC(=O)[C@H](CCCCN)NC(=O)[C@H](CCCNC(=N)N)NC(=O)[C@H](CCCCN)NC(=O)[C@H](CSSC[C@H](NC(=O)[C@H](CC(=O)O)NC(=O)CNC(=O)[C@H](Cc4ccccc4)NC1=O)C(=O)N[C@@H](CCC(=O)O)C(=O)N[C@@H](CCCCN)C(=O)N[C@@H](CC(=O)O)C(=O)N[C@@H](CCC(=O)O)C(=O)N[C@@H](CC(=O)O)C(=O)N3)NC(=O)CNC(=O)[C@H](CC(C)C)NC(=O)[C@H](Cc1c[nH]cn1)NC(=O)[C@H](CCCCN)NC2=O` [[D1K]Pnc1a] (H-KCRYMFGDCEKDEDCCKHLGCKRKMKYCAWDFTFT-OH; disulfide 2-16, 9-21, 15-28), in experiment [1], the IC50 is above 30000 nM and the “Selectivity for Nav1.7, Nav subtype 1.6” value was above 900. Further, in experiment [2], the IC50 was above 30000 nM and the “Selectivity for Nav1.7, Nav subtype 1.8” value is given as above 900. Also, in experiment [3], the concentration for half-maximal inhibition (IC50) came out at 4000 nM and the “Selectivity for Nav1.7, Nav subtype 1.3” value is reported as 134. Besides, in experiment [4], 261 nM corresponded to half-maximal inhibition (IC50) and the “Selectivity for Nav1.7, Nav subtype 1.2” value was 8. In addition, in experiment [5], it took 3000 nM to reach half-maximal inhibition (IC50) and the “Selectivity for Nav1.7, Nav subtype 1.4” value worked out at 86. In experiment [6], the IC50 is above 30000 nM and the “Selectivity for Nav1.7, Nav subtype 1.5” value is above 900. In experiment [7], the midpoint of inhibition, the IC50, lay at 31 nM and the “Selectivity for Nav1.7, Nav subtype 1.7” value turned out to be 1. In experiment [8], the IC50 was 754 nM and the “Selectivity for Nav1.7, Nav subtype 1.1” value was 24.

In the case of `CSCC[C@@H]1NC(=O)[C@H](Cc2ccc(O)cc2)NC(=O)[C@H](CCCNC(=N)N)NC(=O)[C@@H](NC(=O)[C@@H](N)CC(=O)O)CSSC[C@@H]2NC(=O)[C@@H]3CSSC[C@@H](C(=O)N[C@@H](C)C(=O)N[C@@H](Cc4c[nH]c5ccccc45)C(=O)N[C@@H](CC(=O)O)C(=O)N[C@@H](Cc4ccccc4)C(=O)N[C@H](C(=O)N[C@@H](Cc4ccccc4)C(=O)N[C@H](C(=O)O)[C@@H](C)O)[C@@H](C)O)NC(=O)[C@H](Cc4ccc(O)cc4)NC(=O)[C@H](CCCCN)NC(=O)[C@H](CCSC)NC(=O)[C@H](CCCCN)NC(=O)[C@H](CCCNC(=N)N)NC(=O)[C@H](CCCCN)NC(=O)[C@H](CSSC[C@H](NC(=O)CNC(=O)CNC(=O)[C@H](Cc4ccccc4)NC1=O)C(=O)N[C@@H](CCC(=O)O)C(=O)N[C@@H](CCCCN)C(=O)N[C@@H](CC(=O)O)C(=O)N[C@@H](CCC(=O)O)C(=O)N[C@@H](CC(=O)O)C(=O)N3)NC(=O)CNC(=O)[C@H](CC(C)C)NC(=O)[C@H](Cc1c[nH]cn1)NC(=O)[C@H](CCCCN)NC2=O` [[D8G]Pnc1a] (H-DCRYMFGGCEKDEDCCKHLGCKRKMKYCAWDFTFT-OH; disulfide 2-16, 9-21, 15-28), in experiment [1], the IC50 was 2000 nM and the “Selectivity for Nav1.7, Nav subtype 1.6” value is listed as 46. Further, in experiment [2], the IC50 is above 30000 nM and the “Selectivity for Nav1.7, Nav subtype 1.8” value is above 616. In addition, in experiment [3], it took 658 nM to reach half-maximal inhibition (IC50) and the “Selectivity for Nav1.7, Nav subtype 1.3” value came to 13. Besides, in experiment [4], 301 nM corresponded to half-maximal inhibition (IC50) and the “Selectivity for Nav1.7, Nav subtype 1.2” value is reported as 6. Also, in experiment [5], the midpoint of inhibition, the IC50, lay at 2000 nM and the “Selectivity for Nav1.7, Nav subtype 1.4” value was determined as 48. In experiment [6], the IC50 is above 30000 nM and the “Selectivity for Nav1.7, Nav subtype 1.5” value is reported as above 616. Besides, in experiment [7], it took 49 nM to reach half-maximal inhibition (IC50) and the “Selectivity for Nav1.7, Nav subtype 1.7” value worked out at 1. In experiment [8], the IC50 came to 2000 nM and the “Selectivity for Nav1.7, Nav subtype 1.1” value stood at 35.

With `CSCC[C@@H]1NC(=O)[C@H](Cc2ccc(O)cc2)NC(=O)[C@H](CCCNC(=N)N)NC(=O)[C@@H](NC(=O)[C@@H](N)CC(=O)O)CSSC[C@@H]2NC(=O)[C@@H]3CSSC[C@@H](C(=O)N[C@@H](C)C(=O)N[C@@H](Cc4c[nH]c5ccccc45)C(=O)N[C@@H](CC(=O)O)C(=O)N[C@@H](Cc4ccccc4)C(=O)N[C@H](C(=O)N[C@@H](Cc4ccccc4)C(=O)N[C@H](C(=O)O)[C@@H](C)O)[C@@H](C)O)NC(=O)[C@H](Cc4ccc(O)cc4)NC(=O)[C@H](CCCCN)NC(=O)[C@H](CCSC)NC(=O)[C@H](CCCCN)NC(=O)[C@H](CCCNC(=N)N)NC(=O)[C@H](CCCCN)NC(=O)[C@H](CSSC[C@H](NC(=O)[C@H](CCCCN)NC(=O)CNC(=O)[C@H](Cc4ccccc4)NC1=O)C(=O)N[C@@H](CCC(=O)O)C(=O)N[C@@H](CCCCN)C(=O)N[C@@H](CC(=O)O)C(=O)N[C@@H](CCC(=O)O)C(=O)N[C@@H](CC(=O)O)C(=O)N3)NC(=O)CNC(=O)[C@H](CC(C)C)NC(=O)[C@H](Cc1c[nH]cn1)NC(=O)[C@H](CCCCN)NC2=O` [[D8K]Pnc1a] (H-DCRYMFGKCEKDEDCCKHLGCKRKMKYCAWDFTFT-OH; disulfide 2-16, 9-21, 15-28), in experiment [1], the IC50 was above 30000 nM and the “Selectivity for Nav1.7, Nav subtype 1.6” value was above 2000. Also, in experiment [2], the IC50 is above 30000 nM and the “Selectivity for Nav1.7, Nav subtype 1.8” value was above 2000. In addition, in experiment [3], it took 2000 nM to reach half-maximal inhibition (IC50) and the “Selectivity for Nav1.7, Nav subtype 1.3” value amounted to 159. Moreover, in experiment [4], the IC50 amounted to 40 nM and the “Selectivity for Nav1.7, Nav subtype 1.2” value is 3. In experiment [5], the IC50 is 663 nM and the “Selectivity for Nav1.7, Nav subtype 1.4” value is 52. Moreover, in experiment [6], the IC50 was above 30000 nM and the “Selectivity for Nav1.7, Nav subtype 1.5” value is reported as above 2000. Also, in experiment [7], the IC50 was determined as 13 nM and the “Selectivity for Nav1.7, Nav subtype 1.7” value came out at 1. In experiment [8], half-maximal inhibition (IC50) was put at 241 nM and the “Selectivity for Nav1.7, Nav subtype 1.1” value amounted to 19.

Regarding `CSCC[C@@H]1NC(=O)[C@H](Cc2ccc(O)cc2)NC(=O)[C@H](CCCNC(=N)N)NC(=O)[C@@H](NC(=O)[C@@H](N)CC(=O)O)CSSC[C@@H]2NC(=O)[C@@H]3CSSC[C@@H](C(=O)N[C@@H](C)C(=O)N[C@@H](Cc4c[nH]c5ccccc45)C(=O)N[C@@H](CC(=O)O)C(=O)N[C@@H](Cc4ccccc4)C(=O)N[C@H](C(=O)N[C@@H](Cc4ccccc4)C(=O)N[C@H](C(=O)O)[C@@H](C)O)[C@@H](C)O)NC(=O)[C@H](Cc4ccc(O)cc4)NC(=O)[C@H](CCCCN)NC(=O)[C@H](CCSC)NC(=O)[C@H](CCCCN)NC(=O)[C@H](CCCNC(=N)N)NC(=O)[C@H](CCCCN)NC(=O)[C@H](CSSC[C@H](NC(=O)[C@H](CC(N)=O)NC(=O)CNC(=O)[C@H](Cc4ccccc4)NC1=O)C(=O)N[C@@H](CCC(=O)O)C(=O)N[C@@H](CCCCN)C(=O)N[C@@H](CC(=O)O)C(=O)N[C@@H](CCC(=O)O)C(=O)N[C@@H](CC(=O)O)C(=O)N3)NC(=O)CNC(=O)[C@H](CC(C)C)NC(=O)[C@H](Cc1c[nH]cn1)NC(=O)[C@H](CCCCN)NC2=O` [[D8N]Pnc1a] (H-DCRYMFGNCEKDEDCCKHLGCKRKMKYCAWDFTFT-OH; disulfide 2-16, 9-21, 15-28), in experiment [1], the IC50 is above 30000 nM and the “Selectivity for Nav1.7, Nav subtype 1.6” value is listed as above 1000. Further, in experiment [2], the IC50 is above 30000 nM and the “Selectivity for Nav1.7, Nav subtype 1.8” value was above 1000. In addition, in experiment [3], the IC50 came to 3000 nM and the “Selectivity for Nav1.7, Nav subtype 1.3” value was 118. Also, in experiment [4], the IC50 came out at 147 nM and the “Selectivity for Nav1.7, Nav subtype 1.2” value turned out to be 6. Further, in experiment [5], the midpoint of inhibition, the IC50, lay at 852 nM and the “Selectivity for Nav1.7, Nav subtype 1.4” value is reported as 35. Further, in experiment [6], the half-inhibitory concentration (IC50) is above 30000 nM and the “Selectivity for Nav1.7, Nav subtype 1.5” value is above 1000. Also, in experiment [7], the midpoint of inhibition, the IC50, lay at 24 nM and the “Selectivity for Nav1.7, Nav subtype 1.7” value came out at 1. In experiment [8], the IC50 came to 349 nM and the “Selectivity for Nav1.7, Nav subtype 1.1” value is 14.

These data come from patent publication US10662229B2, “Spider venom peptides and methods of use for modulating sodium channels” (priority 2016, dated 2020).
